Laboratory results as given in patent US9408871B2, “Methods for inhibiting complement activation and uses thereof” (THE UNIVERSITY OF BRITISH COLUMBIA, priority 2013, dated 2016).

System: retinal pigmented epithelial cells (ARPE-19)
Test: protection against H2O2 oxidative stress, microscopy
Assay type: cell-based, human
Conditions: 100 μM to 1000 μM, H2O2 24 hours
Method: Using cultured cell lines as models of choroidal endothelial cells (CEC; RF/6A)^73 and retinal pigmented epithelial cells (ARPE-19)^74, we tested whether polyphosphate (polyP) could protect against stress-induced alterations in cell survival and deposition of terminal complement activation products (C5b-9).
CEC (FIG. 21) or ARPE-19 (FIG. 22) cells were grown to ˜80% confluence in DMEM+10% serum, and then incubated with varying concentration of hydrogen peroxide (H2O2) for 24 hours in the presence of varying concentrations of polyP1000.

**Q.** For `O=P(O)(O)O` [P1, Orthophosphate], which “protective effect against H2O2 oxidative stress, ARPE-19” value is on record?
**A.** No effect was observed
